Source: patent US20220056037A1 (SPV THERAPEUTICS INC., priority 2018, published 2022)
Like-named read-outs stand apart in the source and are kept apart here.

Experiments:
Experiment in all cases: Inhibition assay, microfluidic LabChip (Nanosyn)
Type in all cases: biochemical
CDK1/B = CDK1/B (Homo sapiens, UniProt P06493); conditions: Table 3a
Experimental: (§1) The reaction was terminated by the addition of EDTA. The plates were analyzed using a Caliper LabChip 3000.
(§2) Additional inhibition assays were performed as described above.

CDK2-CYCLINA = target: T1, CDK2-CYCLINA (Homo sapiens, UniProt P24941);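 note: values are IC50 from a concentration-response series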
T1 construct: purchased Millipore
Experimental: as §1, §2

CDK4-CYCLIND1 = target: T2, CDK4-CYCLIND1 (Homo sapiens, UniProt P11802); conditions: read-out: CDK4 CyclinD1 IC50
T2 construct: purchased Invitrogen
T2 sequence (P11802 whole entry): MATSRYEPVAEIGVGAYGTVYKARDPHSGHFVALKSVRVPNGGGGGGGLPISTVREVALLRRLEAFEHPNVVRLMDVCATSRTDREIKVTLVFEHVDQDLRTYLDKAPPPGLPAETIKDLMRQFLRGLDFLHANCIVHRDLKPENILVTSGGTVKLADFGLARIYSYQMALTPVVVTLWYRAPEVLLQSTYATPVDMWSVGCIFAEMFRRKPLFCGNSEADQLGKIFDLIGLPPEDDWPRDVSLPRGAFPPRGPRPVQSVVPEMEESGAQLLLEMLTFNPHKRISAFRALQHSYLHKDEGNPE
T2 sequence (P24385 whole entry partner): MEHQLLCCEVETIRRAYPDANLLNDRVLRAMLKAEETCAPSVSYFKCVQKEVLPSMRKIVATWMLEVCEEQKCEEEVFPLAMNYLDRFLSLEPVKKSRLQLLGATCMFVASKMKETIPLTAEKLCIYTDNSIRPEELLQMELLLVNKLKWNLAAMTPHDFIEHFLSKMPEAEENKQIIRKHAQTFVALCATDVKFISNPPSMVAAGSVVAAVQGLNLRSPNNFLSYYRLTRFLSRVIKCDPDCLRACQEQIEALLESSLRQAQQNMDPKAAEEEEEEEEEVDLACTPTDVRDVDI
Experimental: as §1, §2

CDK7 CyclinH = CDK7 CyclinH (Homo sapiens, UniProt P50613);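 note: values are IC50 from a concentration-response series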
Chain of CDK7 CyclinH (P50613 whole entry): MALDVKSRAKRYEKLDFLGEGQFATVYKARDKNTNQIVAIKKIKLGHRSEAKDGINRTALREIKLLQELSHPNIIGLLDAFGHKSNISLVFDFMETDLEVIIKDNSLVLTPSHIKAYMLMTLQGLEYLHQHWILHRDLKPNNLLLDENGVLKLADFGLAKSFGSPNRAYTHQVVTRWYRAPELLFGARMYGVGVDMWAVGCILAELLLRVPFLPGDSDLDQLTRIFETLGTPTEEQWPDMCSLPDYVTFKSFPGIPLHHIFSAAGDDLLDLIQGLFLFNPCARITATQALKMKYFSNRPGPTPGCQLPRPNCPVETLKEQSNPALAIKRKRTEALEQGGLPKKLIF
Chain of CDK7 CyclinH (P51946 whole entry partner): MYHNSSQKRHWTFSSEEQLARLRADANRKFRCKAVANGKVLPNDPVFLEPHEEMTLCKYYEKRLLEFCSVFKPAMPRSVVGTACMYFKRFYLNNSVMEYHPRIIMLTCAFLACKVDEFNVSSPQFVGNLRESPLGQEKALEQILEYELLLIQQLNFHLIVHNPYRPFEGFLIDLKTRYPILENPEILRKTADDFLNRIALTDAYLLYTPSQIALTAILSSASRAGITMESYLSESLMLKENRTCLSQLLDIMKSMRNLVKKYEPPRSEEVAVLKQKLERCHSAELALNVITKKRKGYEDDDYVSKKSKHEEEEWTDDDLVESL
Chain of CDK7 CyclinH (P51948 whole entry partner): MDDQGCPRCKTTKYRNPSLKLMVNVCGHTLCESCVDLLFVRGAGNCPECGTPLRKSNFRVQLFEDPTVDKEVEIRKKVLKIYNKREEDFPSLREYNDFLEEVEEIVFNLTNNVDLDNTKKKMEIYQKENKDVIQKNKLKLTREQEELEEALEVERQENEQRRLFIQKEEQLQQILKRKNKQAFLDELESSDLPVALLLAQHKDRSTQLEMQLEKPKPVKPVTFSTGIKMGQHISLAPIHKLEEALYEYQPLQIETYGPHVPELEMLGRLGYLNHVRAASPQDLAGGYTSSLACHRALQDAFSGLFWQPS
Experimental: as §1, §2

CDK9-CYCLINT1 = target: T3, CDK9-CYCLINT1 (Homo sapiens, UniProt P50750);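 note: values are IC50 from a concentration-response series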
T3 construct: purchased Carna
T3 sequence (P50750 whole entry): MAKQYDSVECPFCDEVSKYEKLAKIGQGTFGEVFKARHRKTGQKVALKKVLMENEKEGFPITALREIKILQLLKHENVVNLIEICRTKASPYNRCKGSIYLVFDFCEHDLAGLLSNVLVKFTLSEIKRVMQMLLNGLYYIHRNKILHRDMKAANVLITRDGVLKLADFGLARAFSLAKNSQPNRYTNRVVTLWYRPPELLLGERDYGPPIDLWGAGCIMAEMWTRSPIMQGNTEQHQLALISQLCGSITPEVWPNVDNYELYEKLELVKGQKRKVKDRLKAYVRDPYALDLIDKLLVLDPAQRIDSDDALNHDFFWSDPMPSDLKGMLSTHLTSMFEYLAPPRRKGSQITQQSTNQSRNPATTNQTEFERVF
T3 sequence (O60563 whole entry partner): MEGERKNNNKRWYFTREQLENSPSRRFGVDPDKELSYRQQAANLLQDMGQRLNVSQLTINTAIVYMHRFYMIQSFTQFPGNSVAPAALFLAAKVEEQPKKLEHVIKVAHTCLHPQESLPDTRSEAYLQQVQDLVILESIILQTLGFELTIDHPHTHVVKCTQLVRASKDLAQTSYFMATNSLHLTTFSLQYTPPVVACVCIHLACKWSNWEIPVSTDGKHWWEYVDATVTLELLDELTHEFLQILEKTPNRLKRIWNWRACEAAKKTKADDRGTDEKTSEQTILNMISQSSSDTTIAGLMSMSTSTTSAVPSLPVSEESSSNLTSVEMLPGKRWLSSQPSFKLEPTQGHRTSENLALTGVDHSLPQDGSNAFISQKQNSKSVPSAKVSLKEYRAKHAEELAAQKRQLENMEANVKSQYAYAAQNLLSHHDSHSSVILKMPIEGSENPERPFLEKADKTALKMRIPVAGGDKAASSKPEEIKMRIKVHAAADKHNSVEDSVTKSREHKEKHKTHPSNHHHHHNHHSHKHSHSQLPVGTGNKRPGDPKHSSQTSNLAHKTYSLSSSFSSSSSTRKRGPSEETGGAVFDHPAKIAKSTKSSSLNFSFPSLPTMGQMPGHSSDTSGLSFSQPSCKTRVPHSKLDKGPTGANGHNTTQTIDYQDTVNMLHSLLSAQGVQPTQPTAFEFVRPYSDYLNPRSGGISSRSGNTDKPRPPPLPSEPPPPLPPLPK
Experimental: as §1, §2

CDK6-CYCLIND3 = target: T4, CDK6-CYCLIND3 (Homo sapiens, UniProt Q00534); conditions: read-out: CDK6 CyclinD3 IC50
T4 construct: purchased Carna
T4 sequence (Q00534 whole entry): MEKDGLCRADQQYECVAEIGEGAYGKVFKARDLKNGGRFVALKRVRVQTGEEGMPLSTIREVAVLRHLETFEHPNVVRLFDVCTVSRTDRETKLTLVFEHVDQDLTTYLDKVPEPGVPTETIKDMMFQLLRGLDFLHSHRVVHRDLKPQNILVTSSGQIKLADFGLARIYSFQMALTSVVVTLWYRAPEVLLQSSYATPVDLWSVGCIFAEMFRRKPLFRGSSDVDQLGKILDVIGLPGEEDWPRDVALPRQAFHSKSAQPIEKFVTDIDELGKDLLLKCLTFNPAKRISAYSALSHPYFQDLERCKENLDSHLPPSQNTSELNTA
T4 sequence (P30281 whole entry partner): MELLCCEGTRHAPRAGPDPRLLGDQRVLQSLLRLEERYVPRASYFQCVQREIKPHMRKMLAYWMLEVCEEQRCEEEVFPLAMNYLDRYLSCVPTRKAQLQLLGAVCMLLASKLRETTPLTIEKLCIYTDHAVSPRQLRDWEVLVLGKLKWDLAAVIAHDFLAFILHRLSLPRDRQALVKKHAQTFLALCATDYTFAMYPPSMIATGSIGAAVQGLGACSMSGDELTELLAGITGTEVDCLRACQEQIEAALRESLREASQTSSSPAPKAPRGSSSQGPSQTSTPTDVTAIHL
Experimental: as §1, §2

Chain of CDK1/B (P06493 whole entry): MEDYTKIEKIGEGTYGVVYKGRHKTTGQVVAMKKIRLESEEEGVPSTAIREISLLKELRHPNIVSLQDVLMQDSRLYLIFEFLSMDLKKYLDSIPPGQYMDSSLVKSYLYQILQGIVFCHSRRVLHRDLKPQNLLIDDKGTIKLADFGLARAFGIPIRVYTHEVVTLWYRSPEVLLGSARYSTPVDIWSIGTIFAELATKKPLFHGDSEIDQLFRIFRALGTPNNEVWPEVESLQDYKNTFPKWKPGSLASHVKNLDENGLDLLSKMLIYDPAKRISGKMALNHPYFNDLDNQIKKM
Chain of CDK1/B (P14635 whole entry partner): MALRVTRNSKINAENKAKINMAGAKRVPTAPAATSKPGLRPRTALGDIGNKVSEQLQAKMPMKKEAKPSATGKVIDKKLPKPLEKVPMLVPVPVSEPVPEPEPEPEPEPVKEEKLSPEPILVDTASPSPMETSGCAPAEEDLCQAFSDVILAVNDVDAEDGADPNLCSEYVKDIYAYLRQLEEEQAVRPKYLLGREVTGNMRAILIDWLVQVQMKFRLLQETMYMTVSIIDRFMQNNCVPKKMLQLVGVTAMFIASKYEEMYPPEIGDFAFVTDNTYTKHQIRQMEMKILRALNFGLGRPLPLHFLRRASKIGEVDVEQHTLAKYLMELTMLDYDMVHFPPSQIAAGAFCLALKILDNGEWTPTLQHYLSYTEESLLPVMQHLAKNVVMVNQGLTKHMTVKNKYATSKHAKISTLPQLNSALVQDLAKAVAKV

SMILES | IC50 (CDK1/B) [nM] | IC50 (CDK2-CYCLINA; Table 3a) [nM] | IC50 (CDK2-CYCLINA; Table 3b) [nM] | IC50 (CDK4-CYCLIND1; Table 3a) [nM] | IC50 (CDK4-CYCLIND1; Table 3b) [nM] | IC50 (CDK7 CyclinH; Table 3a) [µM] | IC50 (CDK7 CyclinH; Table 3b) [µM] | IC50 (CDK9-CYCLINT1; Table 3a) [nM] | IC50 (CDK6-CYCLIND3; Table 3a) [nM] | IC50 (CDK6-CYCLIND3; Table 3b) [nM] | IC50 (CDK9-CYCLINT1; Table 3b) [nM]
CC(C)N1CCN(c2ccc(Nc3ncc4cc(C(=O)N(C)C)n(C56CC(C5)C6)c4n3)cc2)CC1 (single isomer, unassigned) [Compound A89, 7-(bicyclo[1.1.1]pentan-1-yl)-2-((4-(4-isopropylpiperazin-1-yl)phenyl)amino)-N,N-dimethyl-7H-pyrrolo[2,3-d]pyrimidine-6-carboxamide] | 440 | 400 | 400 | < 3.2 | < 3.2 | 1.52 | 1.52 | 4.06 |  |  | 
CN(C)CCOc1ccc(Nc2ncc3cc(C(=O)N(C)C)n(C45CC(C4)C5)c3n2)cc1 [Compound A60, 7-(bicyclo[1.1.1]pentan-1-yl)-2-((4-(2-(dimethylamino)ethoxy)phenyl)amino)-N,N-dimethyl-7H-pyrrolo[2,3-d]pyrimidine-6-carboxamide] | 955 | 800 | 800 | 7.9 | 7.9 | 3.42 | 3.42 | < 3.2 |  |  | < 3.2
CN1CCN(C2CCN(c3ccc(Nc4ncc5cc(C(=O)N(C)C)n(C67CC(C6)C7)c5n4)cc3F)CC2)CC1 [Compound A68, 7-(bicyclo[1.1.1]pentan-1-yl)-2-((3-fluoro-4-(4-(4-methylpiperazin-1-yl)piperidin-1-yl)phenyl)amino)-N,N-dimethyl-7H-pyrrolo[2,3-d]pyrimidine-6-carboxamide] | 562 | 632 | 632 |  |  | 2.68 | 2.68 |  |  |  | 
CN1CC2(C1)CN(c1ccc(Nc3ncc4cc(C(=O)N(C)C)n(C56CC(C5)C6)c4n3)cc1F)C2 [Compound A70, 7-(bicyclo[1.1.1]pentan-1-yl)-2-((3-fluoro-4-(6-methyl-2,6-diazaspiro[3.3]heptan-2-yl)phenyl)amino)-N,N-dimethyl-7H-pyrrolo[2,3-d]pyrimidine-6-carboxamide] | 732 | 631 | 631 | 15.9 | 15.9 | 5.01 | 5.01 | 4.76 |  |  | 
CN(C)C(=O)c1cc2cnc(NC3CCN(S(C)(=O)=O)CC3)nc2n1C12CC(C1)C2 [Compound A75, 7-(bicyclo[1.1.1]pentan-1-yl)-N,N-dimethyl-2-((1-(methylsulfonyl)piperidin-4-yl)amino)-7H-pyrrolo[2,3-d]pyrimidine-6-carboxamide] |  |  |  |  |  | 8.13 | 8.13 | 11.4 |  |  | 
CN(C)C(=O)c1cc2cnc(Nc3ccc(S(C)(=O)=O)cc3)nc2n1C12CC(C1)C2 [Compound A79, 7-(bicyclo[1.1.1]pentan-1-yl)-N,N-dimethyl-2-((4-(methylsulfonyl)phenyl)amino)-7H-pyrrolo[2,3-d]pyrimidine-6-carboxamide] | 97.1 | 30.2 | 30.2 | 36 | 36 | > 10 | > 10 | < 3.2 |  |  | < 3.2
CN(C)C(=O)c1cc2cnc(Nc3ccc(N4CCNCC4)cc3)nc2n1C12CC(C1)C2 [Compound A83, 7-(bicyclo[1.1.1]pentan-1-yl)-N,N-dimethyl-2-((4-(piperazin-1-yl)phenyl)amino)-7H-pyrrolo[2,3-d]pyrimidine-6-carboxamide] |  | 289 | 289 | 6.75 | 6.75 | 3.41 | 3.41 | 12.7 | 15 | 15 | 
CN1CCN(c2ccc(Nc3ncc4cc(C(=O)N(C)C)n(C56CC(C5)C6)c4n3)cc2)CC1 [Compound A84, 7-(bicyclo[1.1.1]pentan-1-yl)-N,N-dimethyl-2-((4-(4-methylpiperazin-1-yl)phenyl)amino)-7H-pyrrolo[2,3-d]pyrimidine-6-carboxamide] |  | 185 | 185 | 2.44 | 2.44 | 1.43 | 1.43 | 5.84 | 6.1 | 6.1 | 5.84
CN1CCN(c2ccc(Nc3ncc4cc(C(=O)N(C)C)n(C56CC(C5)C6)c4n3)cc2)CC1 [Compound A88, 7-(bicyclo[1.1.1]pentan-1-yl)-N,N-dimethyl-2-((4-(4-methylpiperazin-1-yl)phenyl)amino)-7H-pyrrolo[2,3-d]pyrimidine-6-carboxamide dihydrogen chloride] | 379 | 354 | 354 | < 3.2 | < 3.2 | 1.65 | 1.65 | 5.1 |  |  | 5.1
CC1CN(c2ccc(Nc3ncc4cc(C(=O)N(C)C)n(C56CC(C5)C6)c4n3)cc2)CC(C)N1 (stereo not drawn) [Compound A90, 7-(bicyclo[1.1.1]pentan-1-yl)-2-((4-(3,5-dimethylpiperazin-1-yl)phenyl)amino)-N,N-dimethyl-7H-pyrrolo[2,3-d]pyrimidine-6-carboxamide] | 1150 | 913 | 913 | 11.1 | 11.1 | 5.61 | 5.61 | 9.26 |  |  | 
CC1CCN(c2ccc(Nc3ncc4cc(C(=O)N(C)C)n(C56CC(C5)C6)c4n3)cc2)CC1 [Compound A91, 7-(bicyclo[1.1.1]pentan-1-yl)-N,N-dimethyl-2-((4-(4-methylpiperidin-1-yl)phenyl)amino)-7H-pyrrolo[2,3-d]pyrimidine-6-carboxamide] | 1330 | 690 | 690 | 25.5 | 25.5 | 5.79 | 5.79 | 7.14 |  |  | 

More lines, now with the values ahead:

IC50 (CDK1/B) [nM] | IC50 (CDK2-CYCLINA; Table 3a) [nM] | IC50 (CDK2-CYCLINA; Table 3b) [nM] | IC50 (CDK4-CYCLIND1; Table 3a) [nM] | IC50 (CDK4-CYCLIND1; Table 3b) [nM] | IC50 (CDK7 CyclinH; Table 3a) [µM] | IC50 (CDK7 CyclinH; Table 3b) [µM] | IC50 (CDK9-CYCLINT1; Table 3a) [nM] | IC50 (CDK6-CYCLIND3; Table 3a) [nM] | IC50 (CDK6-CYCLIND3; Table 3b) [nM] | IC50 (CDK9-CYCLINT1; Table 3b) [nM] | SMILES
 | 666 | 666 | 16.4 | 16.4 | 4.86 | 4.86 | 14.9 | 44 | 44 |  | CN(C)C(=O)c1cc2cnc(Nc3ccc(N4CC5(CNC5)C4)cc3)nc2n1C12CC(C1)C2 [Compound A48, 2-((4-(2,6-diazaspiro[3.3]heptan-2-yl)phenyl)amino)-7-(bicyclo[1.1.1]pentan-1-yl)-N,N-dimethyl-7H-pyrrolo[2,3-d]pyrimidine-6-carboxamide]
453 | 660 | 660 | 4.52 | 4.52 | 2.06 | 2.06 | 5.46 |  |  |  | CN1CCC(c2ccc(Nc3ncc4cc(C(=O)N(C)C)n(C56CC(C5)C6)c4n3)cc2)CC1 [Compound A51, 7-(bicyclo[1.1.1]pentan-1-yl)-N,N-dimethyl-2-((4-(1-methylpiperidin-4-yl)phenyl)amino)-7H-pyrrolo[2,3-d]pyrimidine-6-carboxamide]
1830 | 1470 | 1470 | 14 | 14 | > 10 | > 10 | 5.1 |  |  |  | CN1CC2(C1)CN(c1ccc(Nc3ncc4cc(C(=O)N(C)C)n(C56CC(C5)C6)c4n3)cc1)C2 [Compound A69, 7-(bicyclo[1.1.1]pentan-1-yl)-N,N-dimethyl-2-((4-(6-methyl-2,6-diazaspiro[3.3]heptan-2-yl)phenyl)amino)-7H-pyrrolo[2,3-d]pyrimidine-6-carboxamide]
250 | 245 | 245 | < 3.2 | < 3.2 | 0.938 | 0.938 | < 3.2 |  |  | < 3.2 | CN(C)C(=O)c1cc2cnc(Nc3ccc(N4CCN(CCO)CC4)c(F)c3)nc2n1C12CC(C1)C2 [Compound A74, 7-(bicyclo[1.1.1]pentan-1-yl)-2-((3-fluoro-4-(4-(2-hydroxyethyl)piperazin-1-yl)phenyl)amino)-N,N-dimethyl-7H-pyrrolo[2,3-d]pyrimidine-6-carboxamide]
 | 18900 | 18900 | 16 | 16 | 27.4 | 27.4 | 670 | 20.1 | 20.1 |  | CN(C)C(=O)c1cc2cnc(Nc3ccc(N4CCNCC4)cn3)nc2n1C12CC(C1)C2 [Compound A86, 7-(bicyclo[1.1.1]pentan-1-yl)-N,N-dimethyl-2-((5-(piperazin-1-yl)pyridin-2-yl)amino)-7H-pyrrolo[2,3-d]pyrimidine-6-carboxamide]
 | 50000 | 50000 | 25.2 | 25.2 | > 100 | > 100 | 553 | 20 | 20 |  | CN(C)C(=O)c1cc2cnc(Nc3ccc(C4=CCNCC4)cn3)nc2n1C12CC(C1)C2 [Compound A87, 7-(bicyclo[1.1.1]pentan-1-yl)-N,N-dimethyl-2-((1′,2′,3′,6′-tetrahydro-[3,4′-bipyridin]-6-yl)amino)-7H-pyrrolo[2,3-d]pyrimidine-6-carboxamide]
620 | 713 | 713 | 14.7 | 14.7 | 2.65 | 2.65 | < 3.2 |  |  | < 3.2 | Cc1cc(Nc2ncc3cc(C(=O)N(C)C)n(C45CC(C4)C5)c3n2)ccc1OCCN(C)C [Compound A92, 7-(bicyclo[1.1.1]pentan-1-yl)-2-((4-(2-(dimethylamino)ethoxy)-3-methylphenyl)amino)-N,N-dimethyl-7H-pyrrolo[2,3-d]pyrimidine-6-carboxamide]
